Results on five molecules are retold here after PubChem BioAssay AID2060883 (Molecular Pharmacology Branch, DTP, NCI, 2025).

Each structure is given as a SMILES string.

The experiment relates to 843782-103-R-J1-PDC complex spheroid viability. In words: Anticancer human tumor 843782-103-R-J1-PDC patient-derived lung adenocarcinoma cell line growth inhibition [RAS]. Conditions: for viability, T/C: stronger effect = lower value. The method, boiled down: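 Tumour cells grown as complex spheroids with HUVEC endothelial cells and mesenchymal stem cells, treated with RAS pathway inhibitor combinations. Each agent spans half-log steps from near clinical Cmax, or 10 microM where Cmax is unknown.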
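Further: viability read after seven days of compound exposure.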

Take `Nc1ccn(C2OC(CO)C(O)C2(F)F)c(=O)n1` (stereo not drawn) + C=CC(=O)N1CCN(c2nc(OCC3CCCN3C)nc3c(F)c(-c4nc(N)cc(C)c4C(F)(F)F)c(Cl)cc23)C(C)C1: the 50% inhibitory concentration (IC50) reads like this: (curve of first compound, second compound 0.00316 µM) 23.7 nM; (curve of first compound, second compound 0.01 µM) 34.4 nM; (curve of first compound, second compound 0.0316 µM) 25.4 nM; (curve of first compound, second compound 0.1 µM) 21.7 nM; (curve of first compound, second compound 0.316 µM) 23.1 nM; (curve of first compound, second compound 1 µM) 20 nM. The viability, T/C by setting is: (second compound 0.00316 µM, first compound 0.00316 µM) 89.9%; (second compound 0.00316 µM, first compound 0.01 µM) 89.7%; (second compound 0.00316 µM, first compound 0.0316 µM) 36.7%; (second compound 0.00316 µM, first compound 0.1 µM) 3.04%; (second compound 0.00316 µM, first compound 0.316 µM) 1.74%; (second compound 0.00316 µM, first compound 1 µM) 2.04%. Moreover, the viability, T/C by setting is: (second compound 0.01 µM, first compound 0.00316 µM) 90.6%; (second compound 0.01 µM, first compound 0.01 µM) 87.7%; (second compound 0.01 µM, first compound 0.0316 µM) 53.7%; (second compound 0.01 µM, first compound 0.1 µM) 3.4%; (second compound 0.01 µM, first compound 0.316 µM) 1.89%; (second compound 0.01 µM, first compound 1 µM) 1.3%. Also, the viability, T/C reads like this: (second compound 0.0316 µM, first compound 0.00316 µM) 88.7%; (second compound 0.0316 µM, first compound 0.01 µM) 86.3%; (second compound 0.0316 µM, first compound 0.0316 µM) 41.4%; (second compound 0.0316 µM, first compound 0.1 µM) 4.87%; (second compound 0.0316 µM, first compound 0.316 µM) 1.41%; (second compound 0.0316 µM, first compound 1 µM) 1.39%. Besides, the viability, T/C reads like this: (second compound 0.1 µM, first compound 0.00316 µM) 96.5%; (second compound 0.1 µM, first compound 0.01 µM) 82.5%; (second compound 0.1 µM, first compound 0.0316 µM) 34.6%; (second compound 0.1 µM, first compound 0.1 µM) 2.56%; (second compound 0.1 µM, first compound 0.316 µM) 1.84%; (second compound 0.1 µM, first compound 1 µM) 1.83%. Moreover, the viability, T/C (second compound 0.316 µM, first compound 0.00316 µM) was 89.9%; the viability, T/C (second compound 0.316 µM, first compound 0.01 µM) is 82.8%; the viability, T/C (second compound 0.316 µM, first compound 0.0316 µM) was 37.8%; the viability, T/C (second compound 0.316 µM, first compound 0.1 µM) was 4.66%; the viability, T/C (second compound 0.316 µM, first compound 0.316 µM) is 1.55%; the viability, T/C (second compound 0.316 µM, first compound 1 µM) was 1.83%. The viability, T/C is 93% (second compound 1 µM, first compound 0.00316 µM); 80% (second compound 1 µM, first compound 0.01 µM); 30.3% (second compound 1 µM, first compound 0.0316 µM); 4.7% (second compound 1 µM, first compound 0.1 µM); 1.55% (second compound 1 µM, first compound 0.316 µM); 1.67% (second compound 1 µM, first compound 1 µM).
With `NC1c2ccccc2OC12CCN(c1cnc3c(N4CCCc5ncccc54)n[nH]c3n1)CC2` (stereo not drawn) + CCn1c(-c2cccnc2C(C)OC)c2c3cc(ccc31)N1CCOC(CC(NC(=O)C(C(C)C)N(C)C(=O)C3(F)CCN(C(=O)C#CC(C)(C)N(C)C)CC3)C(=O)N3CCCC(N3)C(=O)OCC(C)(C)C2)C1, the IC50 (curve of first compound, second compound 0.000949 µM) is under 31.6 nM; the half-inhibitory concentration (IC50) (curve of first compound, second compound 0.003 µM) is under 31.6 nM; the concentration for half-maximal inhibition (IC50) (curve of first compound, second compound 0.00949 µM) is under 31.6 nM; the IC50 (curve of first compound, second compound 0.03 µM) is under 31.6 nM; the IC50 (curve of first compound, second compound 0.0949 µM) was under 31.6 nM; the IC50 (curve of first compound, second compound 0.3 µM) is under 31.6 nM. Besides, the viability, T/C reads like this: (second compound 0.000949 µM, first compound 0.0316 µM) 35.5%; (second compound 0.000949 µM, first compound 0.1 µM) 24.2%; (second compound 0.000949 µM, first compound 0.316 µM) 17.8%; (second compound 0.000949 µM, first compound 1 µM) 17%; (second compound 0.000949 µM, first compound 3.16 µM) 11.9%; (second compound 0.000949 µM, first compound 10 µM) 15.1%. The viability, T/C (second compound 0.003 µM, first compound 0.0316 µM) is 32.3%; the viability, T/C (second compound 0.003 µM, first compound 0.1 µM) is 21.8%; the viability, T/C (second compound 0.003 µM, first compound 0.316 µM) is 20.1%; the viability, T/C (second compound 0.003 µM, first compound 1 µM) was 16.4%; the viability, T/C (second compound 0.003 µM, first compound 3.16 µM) is 15.2%; the viability, T/C (second compound 0.003 µM, first compound 10 µM) is 12.4%. Also, the viability, T/C by setting is: (second compound 0.00949 µM, first compound 0.0316 µM) 27.7%; (second compound 0.00949 µM, first compound 0.1 µM) 25.4%; (second compound 0.00949 µM, first compound 0.316 µM) 21%; (second compound 0.00949 µM, first compound 1 µM) 14.5%; (second compound 0.00949 µM, first compound 3.16 µM) 14.9%; (second compound 0.00949 µM, first compound 10 µM) 13.7%. Further, the viability, T/C runs as follows: (second compound 0.03 µM, first compound 0.0316 µM) 28.8%; (second compound 0.03 µM, first compound 0.1 µM) 24.7%; (second compound 0.03 µM, first compound 0.316 µM) 21.4%; (second compound 0.03 µM, first compound 1 µM) 18.5%; (second compound 0.03 µM, first compound 3.16 µM) 15.8%; (second compound 0.03 µM, first compound 10 µM) 14.1%. Also, the viability, T/C by setting is: (second compound 0.0949 µM, first compound 0.0316 µM) 38.2%; (second compound 0.0949 µM, first compound 0.1 µM) 24.4%; (second compound 0.0949 µM, first compound 0.316 µM) 24%; (second compound 0.0949 µM, first compound 1 µM) 16.6%; (second compound 0.0949 µM, first compound 3.16 µM) 15.4%; (second compound 0.0949 µM, first compound 10 µM) 12.4%. Further, the viability, T/C runs as follows: (second compound 0.3 µM, first compound 0.0316 µM) 26.1%; (second compound 0.3 µM, first compound 0.1 µM) 23.8%; (second compound 0.3 µM, first compound 0.316 µM) 18.8%; (second compound 0.3 µM, first compound 1 µM) 21.8%; (second compound 0.3 µM, first compound 3.16 µM) 16.9%; (second compound 0.3 µM, first compound 10 µM) 14.1%.
For the molecule `CCn1c(-c2cc(N3CCN(C)CC3)cnc2C(C)OC)c2c3cc(ccc31)-c1csc(n1)CC(NC(=O)C1CC1C)C(=O)N1CCCC(N1)C(=O)OCC(C)(C)C2` (stereo not drawn), the viability, T/C is 85.8% [middle of 8 runs] (compound 0.000949 µM); 65.7% [middle of 8 runs] (compound 0.003 µM); 37.1% [middle of 8 runs] (compound 0.00949 µM); 22.4% [middle of 8 runs] (compound 0.03 µM); 17.1% [middle of 8 runs] (compound 0.0949 µM); 14.2% [middle of 8 runs] (compound 0.3 µM). In addition, the half-inhibitory concentration (IC50) (compound alone, run of 08/26/2024) is 5.72 nM [middle of 8 runs].
`Nc1ccn(C2OC(CO)C(O)C2(F)F)c(=O)n1` (stereo not drawn): the viability, T/C by setting is: (compound 0.00316 µM) 107% [middle of 4 runs]; (compound 0.01 µM) 101% [middle of 4 runs]; (compound 0.1 µM) 3.52% [middle of 4 runs]; (compound 0.316 µM) 2.19% [middle of 4 runs]; (compound 1 µM) 2.92% [middle of 4 runs]. Further, the IC50 (curve of compound) is 34.1 nM [middle of 4 runs].
As to `C=CC(=O)N1CCN(c2nc(OCC3CCCN3C)nc3c(F)c(-c4nc(N)cc(C)c4C(F)(F)F)c(Cl)cc23)C(C)C1` (stereo not drawn), the viability, T/C (compound 0.00316 µM) was 89.6% [middle of 12 runs]; the viability, T/C (compound 0.0316 µM) is 86.8% [middle of 12 runs]; the viability, T/C (compound 0.316 µM) was 85.5% [middle of 12 runs]; the viability, T/C (compound 1 µM) was 86% [middle of 12 runs]. Also, the IC50 runs as follows: (compound alone, run of 09/09/2024) over 1000 nM; (curve of compound) over 1000 nM.

Broadly, the IC50 is the midpoint of a concentration-inhibition curve. The term viability, T/C denotes the ratio of treated to control.
